# Data: PMC5534107, “Sensitization of ASIC3 by proteinase-activated receptor 2 signaling contributes to acidosis-induced nociception” (Journal of Neuroinflammation, 2017)
# Experiments:
# rat DRG neurons = experiment: Current clamp of acidosis-evoked action potentials (spikes) in rat DRG neurons; assay type: cell-based; details: PAR2-AP 10^−5 M for 1 min; pH 6.6 for 5 s; capsazepine 10 μM; control 3.5 ± 0.6; P < 0.05; n = 9
# From the text: The experimental protocol was approved by the animal research ethics committee of Hubei University of Science and Technology (No. 2016–67). All procedures conformed to international guidelines on the ethical use of animals, and every effort was made to minimize the number of animals used and their sufferings. Five- to 6-week-old Sprague–Dawley male rats were anesthetized with 7% chloral hydrate and then decapitated. The DRGs were taken out and transferred immediately into Dulbecco’s modified Eagle’s medium (DMEM, Sigma) at pH 7.4. After the removal of the surrounding connective tissues, the DRGs were minced with fine spring scissors and the ganglion fragments were placed in a flask containing 5 ml of DMEM in which trypsin (type II-S, Sigma) 0.5 mg/ml, collagenase (type I-A, Sigma) 1.0 mg/ml, and DNase (type IV, Sigma) 0.1 mg/ml had been dissolved and incubated at 35 °C in a shaking water bath for 25–30 min. Soybean trypsin inhibitor (type II-S, Sigma) 1.25 mg/ml was then added to stop trypsin digestion. The incubating solution was then replaced by external solution. […]
# (§1) Drugs purchased from Sigma and used in the experiments include hydrochloric acid, 2-furoyl-LIGRLO-NH2 (a PAR2-activating peptide (PAR2-AP)), trypsin, FSLLRY-NH2, APETx2, and capsazepine. […] The application pipette tips were positioned ∼30 μm away from the recorded neurons. […]
# [1] = system: ASIC3 currents in CHO cells expressing alone ASIC3, but not expressing PAR2; experiment: Whole-cell patch clamp, CHO cells expressing ASIC3 alone (no PAR2); assay type: cell-based, Chinese hamster; details: 10^−5 M; P > 0.1; n = 10
# Method: (§2) ASIC3, ASIC1a, ASIC1b, ASIC2b, and PAR2 complementary DNAs (cDNAs) were used for heterologous expression in CHO cells as described previously (Wang et al., 2013). In brief, CHO cells were cultured at 37 °C in a humidified atmosphere of 5% CO2 and […] and passaged twice a week. Transient transfection of CHO cells was performed using HilyMax liposome transfection reagent (Dojindo Laboratories). CHO cells were maintained in F-12 Nutrient Mixture (added 1.176 g of NaHCO3/L medium) supplemented with 10% fetal bovine serum and 1% gluta-MAXTM-1 (100×; Invitrogen). When ASIC3 and PAR2 cDNAs were co-transfected, the ratio was kept at 1:1. All plasmids used contained, in addition to the desired ASIC3 cDNA, the coding sequence for enhanced green fluorescent protein to aid identification of transfected cells. Electrophysiological measurements were performed 24–48 h after transfection.
# (§3) Whole-cell patch clamp and voltage clamp recordings were carried out at room temperature (22–25 °C) using a MultiClamp-700B amplifier and Digidata-1440A A/D converter (Axon Instruments, CA, USA). […]
# as §1
# [2] = system: heteromeric ASIC1a+3 channels expressed with PAR2 in CHO cells; experiment: Whole-cell patch clamp, heteromeric ASIC1a+3 channels expressed with PAR2 in CHO cells; assay type: cell-based, Chinese hamster; details: PAR2-AP 10^−5 M for 1 min; I pH 6.6; ASIC3:other subunit 1:3; n = 8
# Method: as §2, §3, §1
substance,measurement,setting,value
2-furoyl-LIGRLO-NH2 [PAR2-AP],mean number of spikes induced by acidosis after PAR2-AP pretreatment,rat DRG neurons,6.3 ± 0.9
same,effect on I pH 6.6 in ASIC3-transfected CHO cells without PAR2,[1],Neither PAR2-AP nor trypsin had an effect
same,increase of peak current of heteromeric ASIC1a+3 channels,[2],51.6 ± 6.5%
